Source: patent publication US20200270309A1, “MALEIMIDE GROUP-MODIFIED ANGIOGENESIS INHIBITOR HM-1 AND USE THEREOF” (NANJING ANJI BIOLOGICAL TECHNOLOGY CO., LTD, priority 2017, published 2020)
Where two headings read alike, the source gives them in different places. Peptide text beside a SMILES is read from it. * marks the point of attachment. X22 = O=C1C=CC(=O)N1CCOCCOCCOCCOCCOCCOCCCCCC(=O)*; X39 = O=C1C=CC(=O)N1c1ccc(CCCCCCCCCCC(=O)*)cc1; X20 = O=C1C=CC(=O)N1CCOCCOCCOCCOCCOCCCC(=O)*; X44 = O=C1C=CC(=O)N1c1ccc(CCCCCCCC(=O)*)cc1; X37 = O=C1C=CC(=O)N1c1ccc(CCCCCC(=O)*)cc1; Maleimidoacetyl = O=C1C=CC(=O)N1CC(=O)*; X56 = O=C1C=CC(=O)N1c1ccc(CCC(=O)*)cc1; X50 = O=C1C=CC(=O)N1c1ccc(CC(=O)*)cc1; X81 = O=C1C=CC(=O)N1c1ccccc1CCCC(=O)*; X32 = O=C1C=CC(=O)N1CCOCCOCCC(=O)*; X82 = O=C1C=CC(=O)N1CCCCCCCCC(=O)*

Test: Half-lives and pharmacokinetic parameters of polypeptides vs HM-1
Details: in vivo

| Structure (SMILES) | AUC(0-inf) | MRT inf | clearance | half-life (T1/2β (half-life)) | AUC(0-inf) (read-out: AUC0-∞) | clearance (read-out: CL (converted)) | MRT inf (read-out: MRT0-∞) | half-life (read-out: T1/2β (half-life) (converted)) |
| --- | --- | --- | --- | --- | --- | --- | --- | --- |
| C[C@H](NC(=O)CNC(=O)[C@H](CCCNC(=N)N)NC(=O)CN1C(=O)C=CC1=O)C(=O)N[C@@H](CC(=O)O)C(=O)N[C@@H](CCCNC(=N)N)C(=O)N[C@@H](C)C(=O)NCC(=O)NCC(=O)NCC(=O)NCC(=O)N[C@@H](CCCNC(=N)N)C(=O)NCC(=O)N[C@@H](CC(=O)O)C(=O)O [X1] (Maleimidoacetyl-RGADRAGGGGRGD-OH) |  |  |  |  | 29000 ± 6940 ng·h/mL | 0.575 mL/min/kg | 51.9 ± 10.2 h | 35.99 ± 0.29 h |
| C[C@H](NC(=O)CNC(=O)[C@H](CCCNC(=N)N)NC(=O)CCCc1ccccc1N1C(=O)C=CC1=O)C(=O)N[C@@H](CC(=O)O)C(=O)N[C@@H](CCCNC(=N)N)C(=O)N[C@@H](C)C(=O)NCC(=O)NCC(=O)NCC(=O)NCC(=O)N[C@@H](CCCNC(=N)N)C(=O)NCC(=O)N[C@@H](CC(=O)O)C(=O)O [X15] (X81-RGADRAGGGGRGD-OH) | 34400 ± 8520 ng·h/mL | 61.5 ± 10 h | 0.485 mL/min/kg | 42.65 ± 0.25 h |  |  |  |  |
| C[C@H](NC(=O)CNC(=O)[C@H](CCCNC(=N)N)NC(=O)Cc1ccc(N2C(=O)C=CC2=O)cc1)C(=O)N[C@@H](CC(=O)O)C(=O)N[C@@H](CCCNC(=N)N)C(=O)N[C@@H](C)C(=O)NCC(=O)NCC(=O)NCC(=O)NCC(=O)N[C@@H](CCCNC(=N)N)C(=O)NCC(=O)N[C@@H](CC(=O)O)C(=O)O [X37] (X50-RGADRAGGGGRGD-OH) | 27200 ± 7210 ng·h/mL | 48.7 ± 13.6 h | 0.612 mL/min/kg | 33.76 ± 0.28 h |  |  |  |  |
| C[C@H](NC(=O)CNC(=O)[C@H](CCCNC(=N)N)NC(=O)CCc1ccc(N2C(=O)C=CC2=O)cc1)C(=O)N[C@@H](CC(=O)O)C(=O)N[C@@H](CCCNC(=N)N)C(=O)N[C@@H](C)C(=O)NCC(=O)NCC(=O)NCC(=O)NCC(=O)N[C@@H](CCCNC(=N)N)C(=O)NCC(=O)N[C@@H](CC(=O)O)C(=O)O [X38] (X56-RGADRAGGGGRGD-OH) | 31400 ± 7550 ng·h/mL | 56.2 ± 11.2 h | 0.532 mL/min/kg | 38.94 ± 0.25 h |  |  |  |  |
| C[C@H](NC(=O)CNC(=O)[C@H](CCCNC(=N)N)NC(=O)CCCCCCCCN1C(=O)C=CC1=O)C(=O)N[C@@H](CC(=O)O)C(=O)N[C@@H](CCCNC(=N)N)C(=O)N[C@@H](C)C(=O)NCC(=O)NCC(=O)NCC(=O)NCC(=O)N[C@@H](CCCNC(=N)N)C(=O)NCC(=O)N[C@@H](CC(=O)O)C(=O)O [X8] (X82-RGADRAGGGGRGD-OH) | 27900 ± 7570 ng·h/mL | 50 ± 12.6 h | 0.597 mL/min/kg | 34.68 ± 0.31 h |  |  |  |  |

More lines, now with the values ahead:

| AUC(0-inf) | MRT inf | clearance | half-life (T1/2β (half-life)) | AUC(0-inf) (read-out: AUC0-∞) | clearance (read-out: CL (converted)) | MRT inf (read-out: MRT0-∞) | half-life (read-out: T1/2β (half-life) (converted)) | Structure (SMILES) |
| --- | --- | --- | --- | --- | --- | --- | --- | --- |
| 33800 ± 8180 ng·h/mL | 60.5 ± 10.5 h | 0.493 mL/min/kg | 41.93 ± 0.24 h |  |  |  |  | C[C@H](NC(=O)CNC(=O)[C@H](CCCNC(=N)N)NC(=O)CCOCCOCCN1C(=O)C=CC1=O)C(=O)N[C@@H](CC(=O)O)C(=O)N[C@@H](CCCNC(=N)N)C(=O)N[C@@H](C)C(=O)NCC(=O)NCC(=O)NCC(=O)NCC(=O)N[C@@H](CCCNC(=N)N)C(=O)NCC(=O)N[C@@H](CC(=O)O)C(=O)O [X57] (X32-RGADRAGGGGRGD-OH) |
| 26500 ± 7810 ng·h/mL | 47.5 ± 13.9 h | 0.628 mL/min/kg | 32.9 ± 0.36 h |  |  |  |  | C[C@H](NC(=O)CNC(=O)[C@H](CCCNC(=N)N)NC(=O)CCCCCc1ccc(N2C(=O)C=CC2=O)cc1)C(=O)N[C@@H](CC(=O)O)C(=O)N[C@@H](CCCNC(=N)N)C(=O)N[C@@H](C)C(=O)NCC(=O)NCC(=O)NCC(=O)NCC(=O)N[C@@H](CCCNC(=N)N)C(=O)NCC(=O)N[C@@H](CC(=O)O)C(=O)O [X41] (X37-RGADRAGGGGRGD-OH) |
| 31600 ± 7470 ng·h/mL | 56.6 ± 11 h | 0.527 mL/min/kg | 39.23 ± 0.29 h |  |  |  |  | C[C@H](NC(=O)CNC(=O)[C@H](CCCNC(=N)N)NC(=O)CCCCCCCCCCc1ccc(N2C(=O)C=CC2=O)cc1)C(=O)N[C@@H](CC(=O)O)C(=O)N[C@@H](CCCNC(=N)N)C(=O)N[C@@H](C)C(=O)NCC(=O)NCC(=O)NCC(=O)NCC(=O)N[C@@H](CCCNC(=N)N)C(=O)NCC(=O)N[C@@H](CC(=O)O)C(=O)O [X46] (X39-RGADRAGGGGRGD-OH) |
| 26700 ± 7420 ng·h/mL | 47.8 ± 9.93 h | 0.623 mL/min/kg | 33.14 ± 0.31 h |  |  |  |  | C[C@H](NC(=O)CNC(=O)[C@H](CCCNC(=N)N)NC(=O)CCCCCCCc1ccc(N2C(=O)C=CC2=O)cc1)C(=O)N[C@@H](CC(=O)O)C(=O)N[C@@H](CCCNC(=N)N)C(=O)N[C@@H](C)C(=O)NCC(=O)NCC(=O)NCC(=O)NCC(=O)N[C@@H](CCCNC(=N)N)C(=O)NCC(=O)N[C@@H](CC(=O)O)C(=O)O [X43] (X44-RGADRAGGGGRGD-OH) |
| 30500 ± 8350 ng·h/mL | 54.6 ± 10.2 h | 0.547 mL/min/kg | 37.87 ± 0.32 h |  |  |  |  | C[C@H](NC(=O)CNC(=O)[C@H](CCCNC(=N)N)NC(=O)CCCOCCOCCOCCOCCOCCN1C(=O)C=CC1=O)C(=O)N[C@@H](CC(=O)O)C(=O)N[C@@H](CCCNC(=N)N)C(=O)N[C@@H](C)C(=O)NCC(=O)NCC(=O)NCC(=O)NCC(=O)N[C@@H](CCCNC(=N)N)C(=O)NCC(=O)N[C@@H](CC(=O)O)C(=O)O [X79] (X20-RGADRAGGGGRGD-OH) |
| 31800 ± 7130 ng·h/mL | 56.9 ± 10.1 h | 0.523 mL/min/kg | 39.45 ± 0.33 h |  |  |  |  | C[C@H](NC(=O)CNC(=O)[C@H](CCCNC(=N)N)NC(=O)CCCCCOCCOCCOCCOCCOCCOCCN1C(=O)C=CC1=O)C(=O)N[C@@H](CC(=O)O)C(=O)N[C@@H](CCCNC(=N)N)C(=O)N[C@@H](C)C(=O)NCC(=O)NCC(=O)NCC(=O)NCC(=O)N[C@@H](CCCNC(=N)N)C(=O)NCC(=O)N[C@@H](CC(=O)O)C(=O)O [X88] (X22-RGADRAGGGGRGD-OH) |
